Literature values as cited in patent publication EP1239867B1, “METHODS FOR TREATING AND PREVENTING DAMAGE TO MUCOSAL TISSUE” (University of Southern California, priority 1999, dated 2005).
Square brackets hold non-standard residues; d marks the D form. Ends that are not written are not given here. Phe(4-NH2) = Nc1ccc(C[C@H](N)C(=O)O)cc1

Tested on: AT2 receptor

Substance | binding characteristics (in words) (experimental models of Catalioto et al. 1994, Bryson et al. 1992) | affinity for AT2 than AT1 (times higher) (selectivity AT2 over AT1, Speth and Kim, BBRC 169:997-1006 (1990))
Asp-Arg-Val-Tyr-Ile-Xaa-Pro-Phe (DRVYI[Phe(4-NH2)]PF) [p-aminophenylalanine6-AII] | comparable to AT2 antagonists | –
Asp-Arg-Val-Tyr-Ile-His-Pro-Phe [AII] | – | 100 times
